Measurements from patent US11109593B2, “Isoxazolin-5-one derivative and herbicide containing same as active ingredient” (HOKKO CHEMICAL INDUSTRY CO., LTD., priority 2017, dated 2021).

Legend:
Type in all cases: in vivo
Echinochloa crus-galli [1] = experiment: Test Example 2: herbicidal effect test by treatment during growing period in paddy rice cultivation (seven days after seeding); settings: for Herbicidal rate (%) Echinochloa crus-galli: 120 g/10a active ingredient, assessed 14 days after treatment, dry weight vs untreated area
Protocol: (§1) This test was conducted in a double system per one agent solution concentration area, and the herbicidal rates (%) were determined by the following equation (Math. 1) on 14 days after the treatment with the agents. Herbicidal Rate (%)={1-(Average Dry Weight (g) of Plant of Treated Area)/(Average Dry Weight (g) of Plant of Untreated Area)}×100 [Math. 1]
(§2) Herbicidal Effect Test by Treatment During Growing Period in Paddy Rice Cultivation
(§3) Wagner pots with an area of 1/10000 ares were filled with a paddy soil, and after adding water, a compound fertilizer (N:P:K=17:17:17) was mixed, followed by soil puddling. Then, Echinochloa crus-galli, broad leaf weeds (Lindernia pyxidaria and Monochoria vaginalis) and Scirpus juncoides, 30 seeds each, were sown in a depth of 0 to 1 cm. Water was poured immediately after seeding, and the water depth was kept at about 3 cm. The subsequent management was conducted in a glass greenhouse. Emulsions prepared using the compounds in Table 4 below according to Formulation Example 5 were diluted with water seven days after seeding, and a certain amount of the water-diluted agent solutions were dropped. The converted amount of the applied active ingredient corresponded to 120 g per 10 ares. The test was conducted in a double system per one agent solution concentration area, and the herbicidal rates (%) were determined by the equation (Math. 1) on 14 days after the treatment with the agents. […] The compound numbers in Table 4 are the same as those in Table 1 and Table 2 above.

[2] = system: broad leaf weeds (Lindernia pyxidaria and Monochoria vaginalis); experiment: as above; settings: for Herbicidal rate (%) Lindernia pyxidaria / Herbicidal rate (%) Monochoria vaginalis: 120 g/10a active ingredient, assessed 14 days after treatment, dry weight vs untreated area
Protocol: as §1, §2, §3

Scirpus juncoides [3] = experiment: as above; settings: for Herbicidal rate (%) Scirpus juncoides: 120 g/10a active ingredient, assessed 14 days after treatment, dry weight vs untreated area
Protocol: as §1, §2, §3

Echinochloa crus-galli [4] = experiment: Test Example 1: herbicidal effect test by treatment of rice paddy soil (immediately after seeding)
Protocol: (§4) Herbicidal Effect Test by Treatment of Rice Paddy Soil
(§5) Wagner pots with an area of 1/10000 ares were filled with a paddy soil, and after adding water, a compound fertilizer (N:P:K=17:17:17) was added, followed by soil puddling. Then, Echinochloa crus-galli, broad leaf weeds (Lindernia pyxidaria and Monochoria vaginalis) and Scirpus juncoides, 30 seeds each, were sown in a depth of 0 to 1 cm. Water was poured immediately after seeding, and the water depth was kept at about 3 cm. The subsequent management was conducted in a glass greenhouse. Immediately after that, emulsions prepared using the compounds in Table 3 below according to Formulation Example 5 were diluted with water, and a certain amount of the water-diluted agent solutions were dropped. The converted amount of the applied active ingredient corresponded to 120 g per 10 ares.
as §1
(§6) The compound numbers in Table 3 are the same as those in Table 1 and Table 2 above.

[5] = system: broad leaf weeds (Lindernia pyxidaria and Monochoria vaginalis); experiment: as above
Protocol: as §4, §5, §1, §6

Scirpus juncoides [6] = experiment: as above
Protocol: as §4, §5, §1, §6

[7] = 120 g/10a, rated 14 days after treatment, paddy soil pots
[8] = 120 g/10a active ingredient, 14 days after treatment, dry weight vs untreated area
[9] = 120 g/10a active ingredient, dry weight vs untreated area, 14 days after treatment
[10] = Lindernia pyxidaria, 120 g/10a active ingredient, dry weight vs untreated area, 14 days after treatment
[11] = Monochoria vaginalis, 120 g/10a active ingredient, dry weight vs untreated area, 14 days after treatment

Cc1c(Cc2ccccc2N(S(=O)(=O)C(F)(F)F)S(=O)(=O)C(F)(F)F)c(=O)on1Cc1cccs1 [Compound 1-1054]
herbicidal rate, Echinochloa crus-galli (Echinochloa crus-galli [1]; [7]): 90%
herbicidal rate, Lindernia pyxidaria ([2]; Lindernia pyxidaria, 120 g/10a, rated 14 days after treatment, paddy soil pots): 100%
herbicidal rate, Monochoria vaginalis ([2]; Monochoria vaginalis, 120 g/10a, rated 14 days after treatment, paddy soil pots): 100%
herbicidal rate, Scirpus juncoides (Scirpus juncoides [3]; [7]): 90%
Herbicidal rate (%) Echinochloa crus-galli (Echinochloa crus-galli [4]; [8]): 90%
Herbicidal rate (%) Lindernia pyxidaria ([5]; Lindernia pyxidaria, 120 g/10a active ingredient, 14 days after treatment, dry weight vs untreated area): 100%
Herbicidal rate (%) Monochoria vaginalis ([5]; Monochoria vaginalis, 120 g/10a active ingredient, 14 days after treatment, dry weight vs untreated area): 100%
Herbicidal rate (%) Scirpus juncoides (Scirpus juncoides [6]; [8]): 90%

Cc1c(Cc2ccccc2NS(=O)(=O)C(F)(F)F)c(=O)on1C(C)c1ccsc1 (stereo not drawn) [Compound 1-235]
Herbicidal rate (%) Echinochloa crus-galli (Echinochloa crus-galli [1]): 50%
Herbicidal rate (%) Lindernia pyxidaria ([2]; Lindernia pyxidaria): 40%
Herbicidal rate (%) Monochoria vaginalis ([2]; Monochoria vaginalis): 60%
Herbicidal rate (%) Scirpus juncoides (Scirpus juncoides [3]): 60%
Herbicidal rate (%) Echinochloa crus-galli (Echinochloa crus-galli [4]; [9]): 90%
Herbicidal rate (%) Lindernia pyxidaria [5, 10]: 60%
Herbicidal rate (%) Monochoria vaginalis [5, 11]: 80%
Herbicidal rate (%) Scirpus juncoides (Scirpus juncoides [6]; [9]): 80%

Cc1c(Cc2ccccc2NS(=O)(=O)C(F)(F)F)c(=O)on1Cc1ccccc1F [Compound 1-181]
Herbicidal rate (%) Echinochloa crus-galli (Echinochloa crus-galli [1]): 50%
Herbicidal rate (%) Lindernia pyxidaria ([2]; Lindernia pyxidaria): 80%
Herbicidal rate (%) Monochoria vaginalis ([2]; Monochoria vaginalis): 90%
Herbicidal rate (%) Scirpus juncoides (Scirpus juncoides [3]): 90%
Herbicidal rate (%) Echinochloa crus-galli (Echinochloa crus-galli [4]; [9]): 90%
Herbicidal rate (%) Lindernia pyxidaria [5, 10]: 100%
Herbicidal rate (%) Monochoria vaginalis [5, 11]: 90%
Herbicidal rate (%) Scirpus juncoides (Scirpus juncoides [6]; [9]): 90%

Cc1c(Cc2ccccc2N(S(=O)(=O)C(F)(F)F)S(=O)(=O)C(F)(F)F)c(=O)on1CC(F)(F)c1ccccc1 [Compound 1-1047]
Herbicidal rate (%) Echinochloa crus-galli (Echinochloa crus-galli [1]): 80%
Herbicidal rate (%) Lindernia pyxidaria ([2]; Lindernia pyxidaria): 90%
Herbicidal rate (%) Monochoria vaginalis ([2]; Monochoria vaginalis): 80%
Herbicidal rate (%) Scirpus juncoides (Scirpus juncoides [3]): 80%
Herbicidal rate (%) Echinochloa crus-galli (Echinochloa crus-galli [4]; [9]): 90%
Herbicidal rate (%) Lindernia pyxidaria [5, 10]: 100%
Herbicidal rate (%) Monochoria vaginalis [5, 11]: 80%
Herbicidal rate (%) Scirpus juncoides (Scirpus juncoides [6]; [9]): 90%

Cc1c(Cc2ccccc2NS(=O)(=O)C(F)(F)F)c(=O)on1Cc1ccc(Cl)cc1 [Compound 1-186]
Herbicidal rate (%) Echinochloa crus-galli (Echinochloa crus-galli [1]): 50%
Herbicidal rate (%) Lindernia pyxidaria ([2]; Lindernia pyxidaria): 80%
Herbicidal rate (%) Monochoria vaginalis ([2]; Monochoria vaginalis): 80%
Herbicidal rate (%) Scirpus juncoides (Scirpus juncoides [3]): 80%
Herbicidal rate (%) Echinochloa crus-galli (Echinochloa crus-galli [4]; [9]): 90%
Herbicidal rate (%) Lindernia pyxidaria [5, 10]: 100%
Herbicidal rate (%) Monochoria vaginalis [5, 11]: 100%
Herbicidal rate (%) Scirpus juncoides (Scirpus juncoides [6]; [9]): 90%

Cc1c(Cc2ccccc2NS(=O)(=O)C(F)(F)F)c(=O)on1Cc1cccs1 [Compound 1-231]
Herbicidal rate (%) Echinochloa crus-galli (Echinochloa crus-galli [1]): 60%
Herbicidal rate (%) Lindernia pyxidaria ([2]; Lindernia pyxidaria): 40%
Herbicidal rate (%) Monochoria vaginalis ([2]; Monochoria vaginalis): 40%
Herbicidal rate (%) Scirpus juncoides (Scirpus juncoides [3]): 60%
Herbicidal rate (%) Echinochloa crus-galli (Echinochloa crus-galli [4]; [9]): 90%
Herbicidal rate (%) Lindernia pyxidaria [5, 10]: 80%
Herbicidal rate (%) Monochoria vaginalis [5, 11]: 90%
Herbicidal rate (%) Scirpus juncoides (Scirpus juncoides [6]; [9]): 80%

Cc1c(Cc2ccccc2N(S(=O)(=O)C(F)(F)F)S(=O)(=O)C(F)(F)F)c(=O)on1Cc1cccc(F)c1 [Compound 1-1013]
Herbicidal rate (%) Echinochloa crus-galli (Echinochloa crus-galli [4]; [9]): 40%
Herbicidal rate (%) Lindernia pyxidaria [5, 10]: 90%
Herbicidal rate (%) Monochoria vaginalis [5, 11]: 90%
Herbicidal rate (%) Scirpus juncoides (Scirpus juncoides [6]; [9]): 90%

Cc1c(Cc2ccccc2N(S(=O)(=O)C(F)(F)F)S(=O)(=O)C(F)(F)F)c(=O)on1Cc1ccc(F)c(Cl)c1 [Compound 1-1029]
Herbicidal rate (%) Echinochloa crus-galli (Echinochloa crus-galli [4]; [9]): 60%
Herbicidal rate (%) Lindernia pyxidaria [5, 10]: 60%
Herbicidal rate (%) Monochoria vaginalis [5, 11]: 60%
Herbicidal rate (%) Scirpus juncoides (Scirpus juncoides [6]; [9]): 60%

Cc1c(Cc2ccccc2N(S(=O)(=O)C(F)(F)F)S(=O)(=O)C(F)(F)F)c(=O)on1Cc1ccc(C(F)(F)F)cc1 [Compound 1-1021]
Herbicidal rate (%) Echinochloa crus-galli (Echinochloa crus-galli [4]; [9]): 40%
Herbicidal rate (%) Lindernia pyxidaria [5, 10]: 40%
Herbicidal rate (%) Monochoria vaginalis [5, 11]: 40%
Herbicidal rate (%) Scirpus juncoides (Scirpus juncoides [6]; [9]): 60%
